This is an account of results in patent publication US20240398784A1, “C-LINKED ISOQUINOLINE AMIDES AS LRRK2 INHIBITORS, PHARMACEUTICAL COMPOSITIONS, AND USES THEREOF” (Merck Sharp & Dohme LLC, priority 2021, published 2024).

Structures are written as SMILES.

Chain of LRRK2 G2019S (Q5S007 whole entry G2019S): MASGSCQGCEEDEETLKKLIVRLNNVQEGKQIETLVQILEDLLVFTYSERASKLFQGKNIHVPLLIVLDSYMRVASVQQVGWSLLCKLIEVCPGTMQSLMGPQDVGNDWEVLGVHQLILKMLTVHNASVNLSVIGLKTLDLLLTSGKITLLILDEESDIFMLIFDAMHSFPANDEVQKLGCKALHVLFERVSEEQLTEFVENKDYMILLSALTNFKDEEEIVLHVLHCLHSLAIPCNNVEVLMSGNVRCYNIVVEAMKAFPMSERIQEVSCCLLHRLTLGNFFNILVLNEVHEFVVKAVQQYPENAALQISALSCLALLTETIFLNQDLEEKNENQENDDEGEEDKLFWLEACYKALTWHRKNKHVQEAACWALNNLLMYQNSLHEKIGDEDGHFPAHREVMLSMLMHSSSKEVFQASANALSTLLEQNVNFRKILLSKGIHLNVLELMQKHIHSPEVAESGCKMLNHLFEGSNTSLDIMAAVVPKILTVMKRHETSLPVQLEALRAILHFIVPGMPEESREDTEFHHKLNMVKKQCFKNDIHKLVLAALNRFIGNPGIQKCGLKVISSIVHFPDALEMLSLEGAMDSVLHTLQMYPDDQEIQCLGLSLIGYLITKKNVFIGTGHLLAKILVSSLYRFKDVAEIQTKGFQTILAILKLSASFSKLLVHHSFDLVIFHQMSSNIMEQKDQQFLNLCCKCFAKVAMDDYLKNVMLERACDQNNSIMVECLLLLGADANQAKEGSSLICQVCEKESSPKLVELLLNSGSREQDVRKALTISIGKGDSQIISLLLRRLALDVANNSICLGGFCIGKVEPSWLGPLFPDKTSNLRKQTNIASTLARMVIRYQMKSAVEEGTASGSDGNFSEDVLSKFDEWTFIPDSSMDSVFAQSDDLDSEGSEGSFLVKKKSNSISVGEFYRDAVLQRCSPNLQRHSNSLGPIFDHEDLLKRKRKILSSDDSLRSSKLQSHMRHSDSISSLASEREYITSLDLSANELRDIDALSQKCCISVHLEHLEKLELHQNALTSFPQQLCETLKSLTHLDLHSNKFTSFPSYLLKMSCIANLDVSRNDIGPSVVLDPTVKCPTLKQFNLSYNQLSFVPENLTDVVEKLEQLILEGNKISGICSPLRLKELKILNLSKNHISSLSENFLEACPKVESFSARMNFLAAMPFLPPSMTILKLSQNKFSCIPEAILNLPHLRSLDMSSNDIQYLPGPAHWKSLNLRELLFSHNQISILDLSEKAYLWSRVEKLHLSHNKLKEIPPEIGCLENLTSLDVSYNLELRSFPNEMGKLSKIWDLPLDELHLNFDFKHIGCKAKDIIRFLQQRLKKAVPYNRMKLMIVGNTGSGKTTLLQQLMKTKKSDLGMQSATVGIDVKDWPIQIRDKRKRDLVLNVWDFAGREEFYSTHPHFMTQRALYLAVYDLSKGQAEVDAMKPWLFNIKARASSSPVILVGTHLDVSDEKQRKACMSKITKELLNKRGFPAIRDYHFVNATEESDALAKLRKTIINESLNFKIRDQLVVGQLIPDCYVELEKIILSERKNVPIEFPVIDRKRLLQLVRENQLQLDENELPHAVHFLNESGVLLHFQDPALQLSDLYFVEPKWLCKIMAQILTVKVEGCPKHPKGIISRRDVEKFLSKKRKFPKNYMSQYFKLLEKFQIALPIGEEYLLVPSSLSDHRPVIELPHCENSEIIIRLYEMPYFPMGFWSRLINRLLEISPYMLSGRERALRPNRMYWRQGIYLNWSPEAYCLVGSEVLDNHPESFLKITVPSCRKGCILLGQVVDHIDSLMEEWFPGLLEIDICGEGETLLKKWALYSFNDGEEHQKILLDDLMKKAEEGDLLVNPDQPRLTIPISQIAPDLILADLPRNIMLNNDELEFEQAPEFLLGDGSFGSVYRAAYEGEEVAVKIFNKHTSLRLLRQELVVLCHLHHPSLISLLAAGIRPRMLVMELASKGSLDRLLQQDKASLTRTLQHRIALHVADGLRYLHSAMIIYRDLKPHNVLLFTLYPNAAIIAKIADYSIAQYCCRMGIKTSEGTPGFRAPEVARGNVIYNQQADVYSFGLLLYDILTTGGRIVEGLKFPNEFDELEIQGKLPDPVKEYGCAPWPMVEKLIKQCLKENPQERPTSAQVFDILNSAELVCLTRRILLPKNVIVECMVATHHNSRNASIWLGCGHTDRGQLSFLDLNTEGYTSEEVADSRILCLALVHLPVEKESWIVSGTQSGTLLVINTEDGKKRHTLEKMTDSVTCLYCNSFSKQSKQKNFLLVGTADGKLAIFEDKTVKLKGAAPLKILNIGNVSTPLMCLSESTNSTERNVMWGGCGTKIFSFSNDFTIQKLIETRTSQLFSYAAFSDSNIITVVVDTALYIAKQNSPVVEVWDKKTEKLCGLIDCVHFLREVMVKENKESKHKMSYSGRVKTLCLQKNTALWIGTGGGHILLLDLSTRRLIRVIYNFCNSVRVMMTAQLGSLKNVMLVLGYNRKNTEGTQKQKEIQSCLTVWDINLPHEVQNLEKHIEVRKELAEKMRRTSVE

This assay addresses LRRK2 G2019S (Homo sapiens, UniProt Q5S007, G2019S). Nature of the assay: LRRK2 G2019S Km ATP LanthaScreen assay. It is filed as biochemical. To be noted: read-out: LRRK2 pIC50 (converted). The method, then:
Unless otherwise noted, all reactions are magnetically stirred. Unless otherwise noted, when diethyl ether is used in the experiments described below, it is Fisher ACS certified material and is stabilized with BHT. Unless otherwise noted, “concentrated” and/or “solvent removed under reduced pressure” means evaporating the solvent from a solution or mixture using a rotary evaporator or vacuum pump. Unless otherwise noted, flash chromatography is carried out on a Teledyne Isco (Lincoln, NE), Analogix (Burlington, WI), or Biotage (Stockholm, SWE) automated chromatography system using a commercially available cartridge as the column. Columns may be purchased from Teledyne Isco, Analogix, Biotage, Varian (Palo Alto, CA), or Supelco (Bellefonte, PA) and are usually filled with silica gel as the stationary phase. Reverse phase prep-HPLC conditions, where used, can be found at the end of each experimental section. Aqueous solutions were concentrated on a Genevac (Ipswich, ENG) or by freeze-drying/lyophilization.
(In general: Time-resolved FRET reads energy transfer from a long-lived donor to a nearby acceptor.)
Regarding `CC1(N2CCC(c3cc4cc(NC(=O)C5CC56CC6)ncc4cc3Cl)CC2)COCC1O` (single isomer, unassigned) [Ex-4.5, N-(7-chloro-6-(1-(4-hydroxy-3-methyltetrahydrofuran-3-yl)piperidin-4-yl)isoquinolin-3-yl)spiro[2.2]pentane-1-carboxamide], the IC50 was 0.0813 nM.
For `CC1(N2CCC(c3cc4cc(NC(=O)C5CC56CC6)ncc4cc3Cl)CC2)COCC1O` (single isomer, unassigned) [Ex-4.6, N-(7-chloro-6-(1-(4-hydroxy-3-methyltetrahydrofuran-3-yl)piperidin-4-yl)isoquinolin-3-yl)spiro[2.2]pentane-1-carboxamide] the value was 0.148 nM; for `CC1(N2CCC(c3cc4cc(NC(=O)C5CC56CCC6)ncc4cc3Cl)CC2)COCC1O` (single isomer, unassigned) [Ex-4.7, N-(7-chloro-6-(1-(4-hydroxy-3-methyltetrahydrofuran-3-yl)piperidin-4-yl)isoquinolin-3-yl)spiro[2.3]hexane-1-carboxamide], 0.0813 nM; for `CC(C)(O)C1CC1C(=O)Nc1cc2cc(C3CCN(C4(C)COCC4O)CC3)c(Cl)cc2cn1` (single isomer, unassigned) [Ex-4.9, Trans-N-(7-chloro-6-(1-(4-hydroxy-3-methyltetrahydrofuran-3-yl)piperidin-4-yl)isoquinolin-3-yl)-2-(2-hydroxypropan-2-yl)cyclopropane-1-carboxamide], 0.151 nM.
For `CC(C)(O)C1CC1C(=O)Nc1cc2cc(C3CCN(C4(C)COCC4O)CC3)c(Cl)cc2cn1` (single isomer, unassigned) [Ex-4.10, Trans-N-(7-chloro-6-(1-(4-hydroxy-3-methyltetrahydrofuran-3-yl)piperidin-4-yl)isoquinolin-3-yl)-2-(2-hydroxypropan-2-yl)cyclopropane-1-carboxamide] the value was 0.0813 nM; for `CC1(N2CCC(c3cc4cc(NC(=O)C5C6CCCOC65)ncc4cc3Cl)CC2)COCC1O` (single isomer, unassigned) [Ex-4.11, N-(7-chloro-6-(1-(4-hydroxy-3-methyltetrahydrofuran-3-yl)piperidin-4-yl)isoquinolin-3-yl)-2-oxabicyclo[4.1.0]heptane-7-carboxamide], 0.363 nM; for `CC1(N2CCC(c3cc4cc(NC(=O)C5C6CCCOC65)ncc4cc3Cl)CC2)COCC1O` (single isomer, unassigned) [Ex-4.12, N-(7-chloro-6-(1-(4-hydroxy-3-methyltetrahydrofuran-3-yl)piperidin-4-yl)isoquinolin-3-yl)-2-oxabicyclo[4.1.0]heptane-7-carboxamide], 0.398 nM.
Consider `CC1(N2CCC(c3cc4cc(NC(=O)C5C6CCCOC65)ncc4cc3Cl)CC2)COCC1O` (single isomer, unassigned) [Ex-4.13, N-(7-chloro-6-(1-(4-hydroxy-3-methyltetrahydrofuran-3-yl)piperidin-4-yl)isoquinolin-3-yl)-2-oxabicyclo[4.1.0]heptane-7-carboxamide], for which the IC50 is 0.182 nM.
For `CC1(N2CCC(c3cc4cc(NC(=O)C5C6CCCOC65)ncc4cc3Cl)CC2)COCC1O` (single isomer, unassigned) [Ex-4.14, N-(7-chloro-6-(1-(4-hydroxy-3-methyltetrahydrofuran-3-yl)piperidin-4-yl)isoquinolin-3-yl)-2-oxabicyclo[4.1.0]heptane-7-carboxamide] the value was 0.0813 nM.
As for `Cc1noc(C2CC2C(=O)Nc2cc3cc(C4CCN(C5(C)COCC5O)CC4)c(Cl)cc3cn2)n1` (single isomer, unassigned) [Ex-4.15, N-(7-chloro-6-(1-(4-hydroxy-3-methyltetrahydrofuran-3-yl)piperidin-4-yl)isoquinolin-3-yl)-2-(3-methyl-1,2,4-oxadiazol-5-yl)cyclopropane-1-carboxamide], the IC50 was 0.0813 nM.
As for `CC1(N2CCC(c3cc4cc(NC(=O)C5COC6(CCC6)C5)ncc4cc3Cl)CC2)COCC1O` (single isomer, unassigned) [Ex-4.17, N-(7-chloro-6-(1-(4-hydroxy-3-methyltetrahydrofuran-3-yl)piperidin-4-yl)isoquinolin-3-yl)-5-oxaspiro[3.4]octane-7-carboxamide], the IC50 was 0.102 nM.
For `CC1(N2CCC(c3cc4cc(NC(=O)C5COC6(CCC6)C5)ncc4cc3Cl)CC2)COCC1O` (single isomer, unassigned) [Ex-4.18, N-(7-chloro-6-(1-(4-hydroxy-3-methyltetrahydrofuran-3-yl)piperidin-4-yl)isoquinolin-3-yl)-5-oxaspiro[3.4]octane-7-carboxamide] the value was 0.166 nM.
For `CC1(N2CCC(c3cc4cc(NC(=O)C5CC5c5ccncc5)ncc4cc3Cl)CC2)COCC1O` (single isomer, unassigned) [Ex-4.21, N-(7-chloro-6-(1-(4-hydroxy-3-methyltetrahydrofuran-3-yl)piperidin-4-yl)isoquinolin-3-yl)-2-(pyridin-4-yl)cyclopropane-1-carboxamide] the value was 0.0813 nM; for `CC1(N2CCC(c3cc4cc(NC(=O)C5CC5c5ccncc5)ncc4cc3Cl)CC2)COCC1O` (single isomer, unassigned) [Ex-4.22, N-(7-chloro-6-(1-(4-hydroxy-3-methyltetrahydrofuran-3-yl)piperidin-4-yl)isoquinolin-3-yl)-2-(pyridin-4-yl)cyclopropane-1-carboxamide], 1.74 nM.
For `CC1(N2CCC(c3cc4cc(NC(=O)C5CCC6(CCC6)OC5)ncc4cc3Cl)CC2)COCC1O` (single isomer, unassigned) [Ex-4.23, N-(7-chloro-6-(1-(4-hydroxy-3-methyltetrahydrofuran-3-yl)piperidin-4-yl)isoquinolin-3-yl)-5-oxaspiro[3.5]nonane-7-carboxamide] the value was 2.34 nM; for `CC1(N2CCC(c3cc4cc(NC(=O)C5CCC6(CCC6)OC5)ncc4cc3Cl)CC2)COCC1O` (single isomer, unassigned) [Ex-4.24, N-(7-chloro-6-(1-(4-hydroxy-3-methyltetrahydrofuran-3-yl)piperidin-4-yl)isoquinolin-3-yl)-5-oxaspiro[3.5]nonane-7-carboxamide], 0.692 nM; for `CC1(C)CCC(C(=O)Nc2cc3cc(C4CCN(C5(C)COCC5O)CC4)c(Cl)cc3cn2)CO1` (single isomer, unassigned) [Ex-4.25, N-(7-chloro-6-(1-(4-hydroxy-3-methyltetrahydrofuran-3-yl)piperidin-4-yl)isoquinolin-3-yl)-6,6-dimethyltetrahydrofuran-2H-pyran-3-carboxamide], 0.776 nM.
For the compound `CC1(C)CCC(C(=O)Nc2cc3cc(C4CCN(C5(C)COCC5O)CC4)c(Cl)cc3cn2)CO1` (single isomer, unassigned) [Ex-4.26, N-(7-chloro-6-(1-(4-hydroxy-3-methyltetrahydrofuran-3-yl)piperidin-4-yl)isoquinolin-3-yl)-6,6-dimethyltetrahydrofuran-2H-pyran-3-carboxamide], the IC50 was 0.427 nM.
For `CN(C)C1CCC2C(C(=O)Nc3cc4cc(C5CCN(C6(C)COCC6O)CC5)c(Cl)cc4cn3)C21` (single isomer, unassigned) [Ex-4.27, N-(7-chloro-6-(1-(4-hydroxy-3-methyltetrahydrofuran-3-yl)piperidin-4-yl)isoquinolin-3-yl)-2-(dimethylamino)bicyclo[3.1.0]hexane-6-carboxamide] the value was 2.57 nM; for `CN(C)C1CCC2C(C(=O)Nc3cc4cc(C5CCN(C6(C)COCC6O)CC5)c(Cl)cc4cn3)C21` (single isomer, unassigned) [Ex-4.28, N-(7-chloro-6-(1-(4-hydroxy-3-methyltetrahydrofuran-3-yl)piperidin-4-yl)isoquinolin-3-yl)-2-(dimethylamino)bicyclo[3.1.0]hexane-6-carboxamide], 0.0813 nM.
Turning to `CCOC1CC2(C1)CC2C(=O)Nc1cc2cc(C3CCN(C4(C)COCC4O)CC3)c(Cl)cc2cn1` (single isomer, unassigned) [Ex-4.29, N-(7-chloro-6-(1-(4-hydroxy-3-methyltetrahydrofuran-3-yl)piperidin-4-yl)isoquinolin-3-yl)-5-ethoxyspiro[2.3]hexane-1-carboxamide], the IC50 was 7.94 nM.
With `CCOC1CC2(C1)CC2C(=O)Nc1cc2cc(C3CCN(C4(C)COCC4O)CC3)c(Cl)cc2cn1` (single isomer, unassigned) [Ex-4.30, N-(7-chloro-6-(1-(4-hydroxy-3-methyltetrahydrofuran-3-yl)piperidin-4-yl)isoquinolin-3-yl)-5-ethoxyspiro[2.3]hexane-1-carboxamide], the IC50 was 3.02 nM.
For `CCOC1CC2(C1)CC2C(=O)Nc1cc2cc(C3CCN(C4(C)COCC4O)CC3)c(Cl)cc2cn1` (single isomer, unassigned) [Ex-4.31, N-(7-chloro-6-(1-(4-hydroxy-3-methyltetrahydrofuran-3-yl)piperidin-4-yl)isoquinolin-3-yl)-5-ethoxyspiro[2.3]hexane-1-carboxamide] the value was 5.62 nM; for `CCOC1CC2(C1)CC2C(=O)Nc1cc2cc(C3CCN(C4(C)COCC4O)CC3)c(Cl)cc2cn1` (single isomer, unassigned) [Ex-4.32, N-(7-chloro-6-(1-(4-hydroxy-3-methyltetrahydrofuran-3-yl)piperidin-4-yl)isoquinolin-3-yl)-5-ethoxyspiro[2.3]hexane-1-carboxamide], 2.57 nM; for `CC1(N2CCC(c3cc4cc(NC(=O)C5C6CCOCC65)ncc4cc3Cl)CC2)COCC1O` (single isomer, unassigned) [Ex-4.33, N-(7-chloro-6-(1-(4-hydroxy-3-methyltetrahydrofuran-3-yl)piperidin-4-yl)isoquinolin-3-yl)-3-oxabicyclo[4.1.0]heptane-7-carboxamide], 1.17 nM.
